Experimental data from PubChem BioAssay (NCI).
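Cells were grown in 96-well plates and exposed to each compound for 48 hours at five concentrations; endpoints were interpolated linearly between bracketing concentrations, or set to the highest concentration if not reached. TGI: total growth inhibition.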

Assays:
Experiment in all cases: NCI anticancer screen, dose series, 48 h
PC-3 prostate = tested on: PC-3 prostate
CCRF-CEM leukemia = tested on: CCRF-CEM leukemia
HS 578T breast = tested on: HS 578T breast
SK-MEL-2 melanoma = tested on: SK-MEL-2 melanoma
NCI-H522 lung = tested on: NCI-H522 lung
MOLT-4 leukemia = tested on: MOLT-4 leukemia
NCI-H460 lung = tested on: NCI-H460 lung
IGROV1 ovarian = tested on: IGROV1 ovarian
A549 NSCLC = tested on: A549 NSCLC
SNB-19 CNS = tested on: SNB-19 CNS
SF-295 CNS = tested on: SF-295 CNS
UACC-62 melanoma = tested on: UACC-62 melanoma
HCC-2998 colon = tested on: HCC-2998 colon
SK-MEL-5 melanoma = tested on: SK-MEL-5 melanoma
NCI/ADR-RES ovarian = tested on: NCI/ADR-RES ovarian
OVCAR-5 ovarian = tested on: OVCAR-5 ovarian
ACHN renal = tested on: ACHN renal
TK-10 renal = tested on: TK-10 renal
K-562 leukemia = tested on: K-562 leukemia
U251 CNS = tested on: U251 CNS

Measured: TGI

NC(CCCCCCCCCCP(=O)(O)O)C(=O)O (stereo not given)
> 100 µM: PC-3 prostate | CCRF-CEM leukemia | HS 578T breast | SK-MEL-2 melanoma | NCI-H522 lung | MOLT-4 leukemia | NCI-H460 lung | IGROV1 ovarian | A549 NSCLC | SNB-19 CNS | SF-295 CNS | UACC-62 melanoma | HCC-2998 colon | SK-MEL-5 melanoma | NCI/ADR-RES ovarian | OVCAR-5 ovarian | ACHN renal | TK-10 renal | K-562 leukemia | U251 CNS
